# Test results as given in US20160101076A1, “Use of Sumoylation Inhibitors for Treating Cancer” (priority 2013, published 2016).
# Tests used:
# [1] = test system: BT-549 cells; test: CD44 Western blot and CD44+/CD24-/low FACS in BT-549 cells; type: cell-based, human; details: for ability to repress CD44 expression with knockdown of TFAP2A: BT549 cells, TFAP2A siRNA, Western blot FIG. 6C; for CD44+/CD24-/low population by FACS analysis / CD44 expression by Western blot: BT-549 cells, FIG. 6A, 10 μM, 2-4 days
# Protocol: (§1) The human breast cancer cell lines (MCF-7, SKBR-3, BT-20, BT-549, MCF-10A) were obtained from American Type Culture Collection. sKD-C cells were subcloned from parental MCF-7 cells with stable knockdown of TFAP2C as described (Cyr et al., 2014). ER<-positive tumors and the basal cancer tumor were obtained from surgical resection specimens. Cell suspensions were prepared with gentle collagenase/hyaluronidase (Stemcells) (Ponti et al., 2005). A new cell line was established from the basal tumor cells, called IOWA-1T (manuscript in preparation).
# (§2) Western blots were performed as previously described (Cyr et al., 2014; Kulak et al., 2013). For immunoprecipitations anti-TFAP2A, anti-GFP antibody (Life Technologies) or IgG (#sc-2025, Santa Cruz Biotechnology) were cross-linked with Dynabeads protein A (Life Technologies). MCF7 protein was incubated with Dynabeads protein A-Abs complex, protein complexes were washed with DPBS (Gibco) with 0.01% Tween (Research Products International Corp.), and eluted with SDS loading buffer.
# (§3) Cells were plated ([…]/10 cm2) and treated with 10 μM gingolic or anacardic acid (Sigma) for 2-4 days and collected for qPCR, Western blot and FACS analysis.
# (§4) FACS analysis was performed as previously described (Roederer and Hardy, 2001).
# [2] = test system: BT-20 cells; test: CD44 Western blot and CD44+/CD24-/low FACS in BT-20 cells; type: cell-based, human; details: for ability to repress CD44 expression with knockdown of TFAP2A: BT20 cells, TFAP2A siRNA, Western blot FIG. 6C; for CD44+/CD24-/low population by FACS analysis / CD44 expression by Western blot: BT-20 cells, FIG. 6A, 10 μM, 2-4 days
# Protocol: as §1, §2, §3, §4
# [3] = test system: pancreatic carcinoma Panc-1 cell line; test: CD44 Western blot in Panc-1 pancreatic carcinoma; type: cell-based; details: Panc-1, 96 h treatment; FIG. 18
# Protocol: FIG. 18: Western blot, CD44 downregulation, Panc-1 pancreatic carcinoma was treated with ginkgolic and anacardic acids, 96 h.
# (§5) Similar downregulation of stem cell marker CD44 was determined in pancreatic carcinoma Panc-1 cell line (FIG. 18) and undifferentiated thyroid cell line 8505c (FIG. 19) after 96 h treatment with SUMO inhibitors anacardic and ginkgolic acids. • Woodfield, G. W., Horan, A. D., Chen, Y. & Weigel, R. J. TFAP2C controls hormone response in breast cancer cells through multiple pathways of estrogen signaling. Cancer Res 67, 8439-8443 (2007). • Woodfield, G. W., Chen, Y., Bair, T. B., Domann, F. E. & Weigel, R. J. Identification of primary gene targets of TFAP2C in hormone responsive breast carcinoma cells. Genes Chromosomes Cancer 49, 948-962, doi:10.1002/gcc.20807 (2010). • Tan, S. K. et al. AP-2gamma regulates oestrogen receptor-mediated longrange chromatin interaction and gene transcription. Embo J 30, 2569-2581, doi:10.1038/emboj.2011.151 (2011). • Sorlie, T. et al. Gene expression patterns of breast carcinomas distinguish tumor subclasses with clinical implications. Proc Natl Acad Sci USA 98, 10869-10874. (2001). • Kao, J. et al. Molecular profiling of breast cancer cell lines defines relevant tumor models and provides a resource for cancer gene discovery. […]
# [4] = test system: undifferentiated thyroid cell line 8505c; test: CD44 Western blot in 8505c thyroid carcinoma; type: cell-based; details: 96 h treatment, FIG. 19
# Protocol: FIG. 19: Western blot, CD44 downregulation, 8505c thyroid carcinoma was treated with ginkgolic and anacardic acids, 96 h.
# as §5
Structure (SMILES),ability to repress CD44 expression with knockdown of TFAP2A [1],CD44+/CD24-/low population by FACS analysis [1],CD44 expression by Western blot [1],ability to repress CD44 expression with knockdown of TFAP2A [2],CD44+/CD24-/low population by FACS analysis [2],CD44 expression by Western blot [2],stem cell marker CD44 (Western blot) [3],stem cell marker CD44 (Western blot) [4]
"CCCCCCCCCCCCCCCc1cccc(O)c1C(=O)O [AA, Anacardic acid (C15:0)]",completely eliminated,significantly reduced,inhibited,completely eliminated,significantly reduced,inhibited,downregulation,downregulation
"CCCCCC/C=C\CCCCCCCc1cccc(O)c1C(=O)O [GA, (Z)-6-(Pentadec-8-enyl)-2-hydroxybenzoic acid]",completely eliminated,significantly reduced,inhibited,completely eliminated,significantly reduced,inhibited,downregulation,downregulation
